The conditions of series [1]: one study, Hannuksela et al. 1975; cited from earlier work.
Series [2] in a line: Skin penetration and permeation, Franz diffusion cells. The series is classed as in vitro ADME. The note with it: addition of menthol to the composition; 21 hours; pig ear skin; FIG. 1. On the procedure: To investigate the skin penetration and permeation of calcipotriol from compositions of the invention, a skin diffusion experiment was conducted. Full thickness skin from pig ears was used in the study. The ears were kept frozen at −18° C. before use. On the day prior to the experiment the ears were placed in a refrigerator (5±3° C.) for slow defrosting. On the day of the experiment, the hairs were removed using a veterinary hair trimmer. The skin was cleaned for subcutaneous fat using a scalpel and two pieces of skin were cut from each ear and mounted on Franz diffusion cells in a balanced order.
Static Franz-type diffusion cells with an available diffusion area of 3.14 cm^2 and receptor volumes ranging from 8.6 to 11.1 ml—were used in substantially the manner described by T. J. Franz, “The finite dose technique as a valid in vitro model for the study of percutaneous absorption in man”, in Current Problems in Dermatology, 1978, J. W. H. Mall (Ed.), Karger, Basel, pp. 58-68. The specific volume was measured and registered for each cell. A magnetic bar was placed in the receptor compartment of each cell. […]
The in vitro skin permeation of each test composition was tested in 6 replicates (i.e. n=6). […] A glass spatula was used for the application, and the residual amount of the composition was determined so as to give the amount of the composition actually applied on the skin. […]

A short description of series [3]: Amount of MCT required to dissolve calcipotriol in a tested ointment composition. The series is classed as physicochemical.

Results on two compounds are retold here after patent US20130023501A1, “PHARMACEUTICAL COMPOSITION COMPRISING SOLVENT MIXTURE AND A VITAMIN D DERIVATIVE OR ANALOGUE” (LEO PHARMA A/S, priority 2009, published 2013).

Structures are written as SMILES.

As for `CC(O)CO` (stereo not drawn) [propylene glycol], the “number of irritant reactions to propylene glycol” value in series [1] is 12.5%.
For `C=C1/C(=C\C=C2/CCC[C@]3(C)[C@@H]([C@H](C)/C=C/[C@@H](O)C4CC4)CC[C@@H]23)C[C@@H](O)C[C@@H]1O` [calcipotriol, Calcipotriol], in series [2], the “skin permeation of calcipotriol” value is given as “significant increase”. Also, in series [3], the “MCT required to completely dissolve calcipotriol” value is given as “about 50%”.
